The test has as its system Streptococcus pyogenes (ATCC# 97-03 14289). Description: Anti-microbial screen (growth inhibition, OD 570 nm). The note with it: ATCC97, compounds at 170 μg/ml, Todd Hewitt Broth, read at 4 hrs. In kind it is cell-based. The procedure:
Streptococcus pyogenes (ATCC# 97-03 14289) were grown in Todd Hewitt Broth (THB) (Difco Laboratories #0492-17-6) overnight until they reached an optical density of (OD=0.636@ 570 nm) by reading 0.1 ml in a 96 well microtiter plate in a Molecular Devices Thermomax. This preparation was kept frozen as stocks in 30% v/v glycerol in 1.5 ml aliquots at −70 C° until used. Prior to screening, 1.5 ml aliquots were thawed and diluted into 50 ml THB. 200 μl of this dilution was added to 92 wells of microtiter plate. To three wells THB (200 μl) was added to serve as a blank and a sterility control. Test compounds in DMSO and appropriate concentrations of DMSO were added to Growth/Solvent Controls at 0 time. Plates were read at 0 time at 570 nm in the Molecular Devices plate reader to obtain compounds correction factors for insoluble or colored compounds. Plates were read again at 4 hrs.
Compounds were assayed at a concentration of 170 μg/ml. Percent inhibition for each compound was calculated using the following formulae:
Color correct=(O.D. 0 hr−Blank 0 hr)−(Solvent Control 0 hr−Blank 0 hr)
% Inhibition=100−(O.D. test compound 4 hr−Blank 4 hr−color correct) divided by (O.D. growth/solvent control 4 hr−Blank 4 hr)
The term inhibition denotes the change of the read-out against control, counted positive when it falls. For `CCOC(=O)C1CCCN(c2ccc3c(c2)-c2nc4cc(C(=O)N5CCC(NC(C)=O)C5)ccc4n2C(CCCNC(=N)N)C(=O)N3)C1` (stereo not drawn) [6000#59317], the inhibition at 170 µg/mL was found to be 96.6%.
For `CN(C)CCN(C)c1ccc2c(c1)-c1nc3ccccc3n1[C@H](Cc1ccccc1)C(=O)N2` [6000#36335] the value was 100%; for `CCN(CC)CCN(C)c1ccc2c(c1)-c1nc3cc(C(F)(F)F)ccc3n1C(CCCCNC(=O)C(F)(F)F)C(=O)N2` (stereo not drawn) [6000#56919], 95.8%; for `COCCN(CCOC)C(=O)c1ccc2c(c1)nc1n2[C@@H](CC2CCCCC2)C(=O)Nc2ccc(N(C)CCN(C)C)cc2-1` [6000#38735], 96.7%.
For `CCOC(=O)CCNC(=O)c1ccc2c(c1)nc1n2C(CCCNC(=N)N)C(=O)Nc2ccc(Sc3ccccn3)cc2-1` (stereo not drawn) [6000#57425] the value was 97.8%; for `CCOCCNc1ccc2c(c1)-c1nc3cc(Br)ccc3n1C(CCCNC(=N)N)C(=O)N2` (stereo not drawn) [6000#60778], 98.8%; for `CSCCCNC(=O)c1ccc2c(c1)nc1n2[C@@H](CC2CCCCC2)C(=O)Nc2ccc(N(C)CCN(C)C)cc2-1` [6000#39135], 98.1%.
Take `CCOC(=O)N1CCN(c2ccc3c(c2)-c2nc4ccccc4n2C(CCCNC(=N)N)C(=O)N3)CC1` (stereo not drawn) [6000#60826]: the inhibition at 170 µg/mL turned out to be 95%.
The value for `CN(C)CCCN(C)c1ccc2c(c1)-c1nc3cc(C(=O)NCCN4CCOCC4)ccc3n1[C@@H](CC1CCCCC1)C(=O)N2` [6000#39255] was 95.2%; that for `CC(=O)NCCNC(=O)c1ccc2c(c1)nc1n2C(CCCNC(=N)N)C(=O)Nc2ccc(NCc3ccc(F)cc3)cc2-1` (stereo not drawn) [6000#59512] was 98.7%; that for `CCN(CC)c1ccc2c(c1)-c1nc3cc(C(=O)N4CCCC4)ccc3n1C(CCCNC(=N)N)C(=O)N2` (stereo not drawn) [6000#57519] was 100%.
As for `CC1(C)CC(NC(=O)c2ccc3c(c2)nc2n3[C@@H](CCC(N)=O)C(=O)Nc3ccc(NCc4cccc(C(F)(F)F)c4)cc3-2)CC(C)(C)N1` [6000#17584], the inhibition at 170 µg/mL amounted to 97.2%.
The value for `COCCN(CCOC)C(=O)c1ccc2c(c1)nc1n2[C@@H](Cc2ccc(Cl)cc2)C(=O)Nc2ccc(N(C)CCN(C)C)cc2-1` [6000#46895] was 96.1%; that for `CCOC(=O)C1CCN(c2ccc3c(c2)-c2nc4cc(C(=O)N5CCC(NC(C)=O)C5)ccc4n2C(CCCNC(=N)N)C(=O)N3)CC1` (stereo not drawn) [6000#59325] was 95.2%.
On to `CCOC(=O)N1CCN(C(=O)c2ccc3c(c2)nc2n3C(CCCNC(=N)N)C(=O)Nc3ccc(N(CC)CC)cc3-2)CC1` (stereo not drawn) [6000#59439], for which the inhibition at 170 µg/mL worked out at 96.4%.
For `CCOC(=O)C1CCN(c2ccc3c(c2)-c2nc4ccc(Cl)cc4n2C(CCCCNC(=O)C(F)(F)F)C(=O)N3)CC1` (stereo not drawn) [6000#57085] the value was 96.7%; for `CSCCCNC(=O)c1ccc2c(c1)nc1n2[C@@H](Cc2ccc(Cl)cc2)C(=O)Nc2ccc(N(C)CCCN(C)C)cc2-1` [6000#47335], 96.2%.
Take `CN(C)CCCN(C)c1ccc2c(c1)-c1nc3cc(C(=O)NCCCN4CCCC4=O)ccc3n1[C@@H](Cc1ccc(Cl)cc1)C(=O)N2` [6000#46455]: the inhibition at 170 µg/mL was 96.8%.
The value for `CN(C)CCN(C)c1ccc2c(c1)-c1nc3ccc(Cl)cc3n1[C@H](Cc1ccccc1)C(=O)N2` [6000#36655] was 96.8%; that for `COCCN(CCOC)C(=O)c1ccc2c(c1)nc1n2C(CCCNC(=N)N)C(=O)Nc2ccc(N(C)Cc3ccccc3)cc2-1` (stereo not drawn) [6000#59152] was 97.2%; that for `CCOC(=O)CCNC(=O)c1ccc2c(c1)nc1n2[C@@H](Cc2ccc(Cl)cc2)C(=O)Nc2ccc(N(C)CCN(C)C)cc2-1` [6000#45135] was 97.8%.
On to `CCOC(=O)C1CCCN(C(=O)c2ccc3c(c2)nc2n3C(CCCNC(=N)N)C(=O)Nc3ccc(N4CCSCC4)cc3-2)C1` (stereo not drawn) [6000#58475], for which the inhibition at 170 µg/mL turned out to be 99.1%.
For `O=C1Cn2c(nc3ccc(Cl)cc32)-c2cc(NC3CCCCCC3)ccc2N1` [6000#04048] the value was 95%; for `N=C(N)NCCCC1C(=O)Nc2ccc(N3CCSCC3)cc2-c2nc3ccccc3n21` (stereo not drawn) [6000#60875], 101%; for `CCOC(=O)N1CCN(C(=O)c2ccc3c(c2)nc2n3C(CCCNC(=N)N)C(=O)Nc3ccc(NCCCSC)cc3-2)CC1` (stereo not drawn) [6000#59387], 97.8%.
On to `CN(C)CCCNc1ccc2c(c1)-c1nc3ccc(Cl)cc3n1[C@H](Cc1ccccc1)C(=O)N2` [6000#36687], for which the inhibition at 170 µg/mL amounted to 96.1%.
The value for `CCN1CCCC1CNC(=O)c1ccc2c(c1)nc1n2CC(=O)Nc2ccc(NCCN3CCOCC3)cc2-1` (stereo not drawn) [6000#00002] was 96.3%.
For the compound `CC(=O)N1CCN(c2ccc3c(c2)-c2nc4cc(Br)ccc4n2C(CCCNC(=N)N)C(=O)N3)CC1` (stereo not drawn) [6000#60754], the inhibition at 170 µg/mL worked out at 97.3%.
As for `CCOC(=O)C1CCCN(C(=O)c2ccc3c(c2)nc2n3C(CCCNC(=N)N)C(=O)Nc3ccc(N(C)CCc4ccccn4)cc3-2)C1` (stereo not drawn) [6000#58414], the inhibition at 170 µg/mL was determined as 98%.
For `CC1CCCCN1CCCNc1ccc2c(c1)-c1nc3ccc(Cl)cc3n1C(C)C(=O)N2` (stereo not drawn) [6000#08102] the value was 95.1%; for `CCOC(=O)CCNC(=O)c1ccc2c(c1)nc1n2C(CCCNC(=N)N)C(=O)Nc2ccc(NC3CCN(Cc4ccccc4)C3)cc2-1` (stereo not drawn) [6000#57389], 97.3%; for `CN(C)CCCN(C)c1ccc2c(c1)-c1nc3cc(C(F)(F)F)ccc3n1C(CCCCNC(=O)C(F)(F)F)C(=O)N2` (stereo not drawn) [6000#56935], 95.8%.
For `CC(=O)NCCNC(=O)c1ccc2c(c1)nc1n2[C@@H](Cc2ccc(Cl)cc2)C(=O)Nc2ccc(NCCCN3CCCCC3C)cc2-1` (stereo partly drawn) [6000#47222] the value was 95.7%; for `CN(C)CCCNc1ccc2c(c1)-c1nc3cc(C(F)(F)F)ccc3n1C(CCCCNC(=O)C(F)(F)F)C(=O)N2` (stereo not drawn) [6000#56927], 96.3%.
For `CN(C)CCCN(C)c1ccc2c(c1)-c1nc3cc(Br)ccc3n1C(CCCCNC(=O)C(F)(F)F)C(=O)N2` (stereo not drawn) [6000#56695] the value was 95.8%; for `Cn1cnnc1Sc1ccc2c(c1)-c1nc3ccccc3n1C(CCCNC(=N)N)C(=O)N2` (stereo not drawn) [6000#60857], 95.3%.
As to `CN(C)CCN(C)c1ccc2c(c1)-c1nc3cc(Br)ccc3n1[C@@H](CCCCNC(=O)C(F)(F)F)C(=O)N2` [6000#56655], the inhibition at 170 µg/mL came to 97.8%.
With `CCOC(=O)C1CCN(c2ccc3c(c2)-c2nc4cc(C(=O)N5CCCC(C(=O)OCC)C5)ccc4n2C(CCCNC(=N)N)C(=O)N3)CC1` (stereo not drawn) [6000#58445], the inhibition at 170 µg/mL is 97%.
`CN(C)CCCNc1ccc2c(c1)-c1nc3cc(Br)ccc3n1C(CCCCNC(=O)C(F)(F)F)C(=O)N2` (stereo not drawn) [6000#56687]: the inhibition at 170 µg/mL was found to be 96.8%.
For `CN(C)CCN(C)c1ccc2c(c1)-c1nc3cc(Br)ccc3n1C(CCCNC(=N)N)C(=O)N2` (stereo not drawn) [6000#60735], the inhibition at 170 µg/mL was determined as 99.9%.
The value for `CCCCNc1ccc2c(c1)-c1nc3cc(C(=O)NCCCCCC(=O)OC)ccc3n1C(CCCNC(=N)N)C(=O)N2` (stereo not drawn) [6000#57343] was 100%; that for `CCCCNc1ccc2c(c1)-c1nc3cc(C(=O)N4CCCC4)ccc3n1C(CCCNC(=N)N)C(=O)N2` (stereo not drawn) [6000#57503] was 97.4%; that for `CC1CC(Nc2ccc3c(c2)-c2nc4ccc(Cl)cc4n2CC(=O)N3)CC(C)(C)C1` (stereo not drawn) [6000#04080] was 95.3%.
With `CC(=O)NC1CCN(C(=O)c2ccc3c(c2)nc2n3C(CCCNC(=N)N)C(=O)Nc3ccc(N4CCSCC4)cc3-2)C1` (stereo not drawn) [6000#59355], the inhibition at 170 µg/mL was 97.2%.
Turning to `CCN1CCCC1CNC(=O)c1ccc2c(c1)nc1n2CC(=O)Nc2ccc(N(C)CCN(C)C)cc2-1` (stereo not drawn) [6000#00015], the inhibition at 170 µg/mL came out at 96.3%.
For `CCOC(=O)N1CCN(C(=O)c2ccc3c(c2)nc2n3C(CCCNC(=N)N)C(=O)Nc3ccc(Sc4nc(C)cc(C)n4)cc3-2)CC1` (stereo not drawn) [6000#59393] the value was 96.1%; for `CCN(CC)c1ccc2c(c1)-c1nc3cc(C(=O)N(C)C4CCN(C)CC4)ccc3n1C(CCCNC(=N)N)C(=O)N2` (stereo not drawn) [6000#57999], 95.1%.
For `CN(C)CCCN(C)c1ccc2c(c1)-c1nc3cc(C(=O)N4CCC(C(N)=O)CC4)ccc3n1[C@@H](CC1CCCCC1)C(=O)N2` [6000#38375] the value was 95.1%.
The value for `CN(C)CCN(C)c1ccc2c(c1)-c1nc3cc(C(F)(F)F)ccc3n1[C@@H](Cc1c[nH]c3ccccc13)C(=O)N2` [6000#52815] was 98.8%; that for `CCOCCNc1ccc2c(c1)-c1nc3cc(C(=O)Nc4nccs4)ccc3n1C(CCCNC(=N)N)C(=O)N2` (stereo not drawn) [6000#57258] was 96.9%.
Take `CCOC(=O)N1CCN(C(=O)c2ccc3c(c2)nc2n3C(CCCNC(=N)N)C(=O)Nc3ccc(N4CCSCC4)cc3-2)CC1` (stereo not drawn) [6000#59435]: the inhibition at 170 µg/mL was determined as 96.1%.
With `CCN(CC)c1ccc2c(c1)-c1nc3ccccc3n1C(CCCNC(=N)N)C(=O)N2` (stereo not drawn) [6000#60879], the inhibition at 170 µg/mL is 97.4%.
With `CC(=O)NCCNc1ccc2c(c1)-c1nc3cc(Br)ccc3n1C(CCCNC(=N)N)C(=O)N2` (stereo not drawn) [6000#60738], the inhibition at 170 µg/mL came to 96.5%.
With `CN(CCc1ccccc1)c1ccc2c(c1)-c1nc3cc(C(=O)NC4CC(C)(C)NC(C)(C)C4)ccc3n1[C@@H](CCC(N)=O)C(=O)N2` [6000#17560], the inhibition at 170 µg/mL was 98.6%.

The values above are taken from US6515122B1, “Tetracyclic benzimidazole derivatives and combinatorial libraries thereof” (Lion Bioscience AG, priority 1999, dated 2003).
